The values below come from patent publication US11608335B2, “Somatostatin modulators and uses thereof” (CRINETICS PHARMACEUTICALS, INC., priority 2018, dated 2023).

Each structure is given as a SMILES string. Read-outs that look alike come from different tables or passages of the source.

The target in assay [1] is human somatostatin receptor subtype 5 (Homo sapiens, UniProt P35346). As to the kind of experiment: cAMP assay for SST5R (inhibition of cAMP via human SST5 receptor). The following applies: for Fold selectivity for SST5 vs SST2: SST5 over SST2, class symbols. (cAMP levels reflect the balance of adenylyl cyclase and phosphodiesterase activity.)
Sequence of human somatostatin receptor subtype 5 (P35346 whole entry): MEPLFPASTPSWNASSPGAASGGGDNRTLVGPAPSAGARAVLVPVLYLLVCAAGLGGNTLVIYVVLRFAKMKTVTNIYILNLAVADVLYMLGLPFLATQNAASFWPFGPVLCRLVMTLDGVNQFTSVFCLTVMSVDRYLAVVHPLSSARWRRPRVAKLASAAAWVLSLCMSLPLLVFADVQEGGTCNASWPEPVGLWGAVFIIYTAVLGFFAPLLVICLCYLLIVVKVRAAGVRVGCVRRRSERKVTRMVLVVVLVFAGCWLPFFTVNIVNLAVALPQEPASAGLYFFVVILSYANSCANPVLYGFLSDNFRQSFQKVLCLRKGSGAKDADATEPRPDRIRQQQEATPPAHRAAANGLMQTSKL
Assay [2] concerns the target T1, human somatostatin receptor subtype 2 (Homo sapiens, UniProt P30874).
T1 construct: expressed in transfected cells
As to the kind of experiment: cAMP assay for SST2R (inhibition of cAMP via human SST2 receptor). The format is cell-based. The following applies: Table B, read-out: SST2 potency. An excerpt: cAMP Assay Protocol for SST2R:

[3] abbreviates: read-out: SST5 potency, inhibition of cAMP via human SST5 receptor, Table B.

T1 sequence (P30874 whole entry): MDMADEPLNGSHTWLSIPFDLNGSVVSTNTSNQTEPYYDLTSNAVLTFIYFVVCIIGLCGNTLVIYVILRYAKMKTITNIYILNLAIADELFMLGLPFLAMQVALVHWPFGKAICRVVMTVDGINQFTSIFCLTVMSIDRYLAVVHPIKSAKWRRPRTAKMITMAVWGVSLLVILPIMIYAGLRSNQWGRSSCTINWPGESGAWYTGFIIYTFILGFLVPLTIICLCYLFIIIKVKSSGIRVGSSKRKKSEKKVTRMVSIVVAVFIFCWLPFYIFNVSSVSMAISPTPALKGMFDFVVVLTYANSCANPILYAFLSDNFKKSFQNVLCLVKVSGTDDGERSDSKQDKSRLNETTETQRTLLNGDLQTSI

As to `Cc1cc(F)cc(-c2cncc(-c3nc4cccc(C)c4[nH]3)c2N2CC(CN)C2)c1` [Compound 1-9, 1-{1-[3-(3-fluoro-5-methylphenyl)-5-(4-methyl-1H-1,3-benzodiazol-2-yl)pyridin-4-yl]azetidin-3-yl}methanamine], the EC50 in assay [1] is under 10 nM; in assay [1] (setting [3]), under 10 nM; in assay [2], over 1000 nM. Besides, the “Fold selectivity for SST5 vs SST2” value in assay [1] is reported as “+++ (+++=≥500)”.
Turning to `C[C@]1(N)CCN(c2c(-c3cccc(C#N)c3)cncc2-c2nc3cccc(C#N)c3[nH]2)C1` [Compound 2-177, 2-{4-[(3 S)-3-amino-3-methylpyrrolidin-1-yl]-5-(3-cyanophenyl)pyridin-3-yl}-1H-1,3-benzodiazole-7-carbonitrile], the results for the EC50 in assay [1], in assay [1] (setting [3]) and in assay [2] were under 10 nM, under 10 nM and 100 to 1000 nM, respectively. Further, the “Fold selectivity for SST5 vs SST2” value in assay [1] is “+++ (+++=≥500)”.
`N#Cc1cc(F)cc(-c2cncc(-c3nc4cc(F)cc(F)c4[nH]3)c2N2CC[C@H](N)C2)c1` [Compound 2-195, 3-{4-[(3S)-3-aminopyrrolidin-1-yl]-5-(4,6-difluoro-1H-1,3-benzodiazol-2-yl)pyridin-3-yl}-5-fluorobenzonitrile]: the “Fold selectivity for SST5 vs SST2” value in assay [1] is listed as “+++ (+++=≥500)”. Further, the EC50 in assay [1] (setting [3]) was under 10 nM; in assay [2], over 1000 nM.
For `Cc1cc(F)cc(-c2cncc(-c3nc4cccc(Cl)c4[nH]3)c2N2CC[C@H](N)C2)c1` [Compound 2-197, (3S)-1-[3-(7-chloro-1H-1,3-benzodiazol-2-yl)-5-(3-fluoro-5-methylphenyl)pyridin-4-yl]pyrrolidin-3-amine], the EC50 in assay [1] is under 10 nM; in assay [1] (setting [3]), under 10 nM; in assay [2], 100 to 1000 nM. Besides, the “Fold selectivity for SST5 vs SST2” value in assay [1] was “++ (++=100 to 499)”.
With `CC1(N)CCN(c2c(-c3ccnc(C#N)c3)cncc2-c2nc3cccc(F)c3[nH]2)C1` (centres unmarked) [Compound 2-121, 4-(3-amino-3-methylpyrrolidin-1-yl)-5-(4-fluoro-1H-1,3-benzodiazol-2-yl)-[3,4′-bipyridine]-2′-carbonitrile], the EC50 in assay [1] was under 10 nM; in assay [1] (setting [3]), under 10 nM; in assay [2] it was 100 to 1000 nM. Further, in assay [1], the “Fold selectivity for SST5 vs SST2” value is reported as “+++ (+++=≥500)”.
As to `Cc1cc(F)cc2[nH]c(-c3cncc(-c4ccnc(C#N)c4)c3N3CC[C@](C)(N)C3)nc12` [Compound 2-166, 4-[(3S)-3-amino-3-methylpyrrolidin-1-yl]-5-(6-fluoro-4-methyl-1H-1,3-benzodiazol-2-yl)-[3,4′-bipyridine]-2′-carbonitrile], the EC50 in assay [1] is under 10 nM; in assay [1] (setting [3]), under 10 nM; in assay [2] it was 100 to 1000 nM. Besides, in assay [1], the “Fold selectivity for SST5 vs SST2” value is given as “+++ (+++=≥500)”.
`Cc1ccnc2nc(-c3cncc(-c4cccc(Cl)c4)c3N3CC[C@](C)(N)C3)[nH]c12` [Compound 2-180, (3S)-1-[3-(3-chlorophenyl)-5-{7-methyl-1H-imidazo[4,5-b]pyridin-2-yl}pyridin-4-yl]-3-methylpyrrolidin-3-amine]: the EC50 in assay [1] is under 10 nM; in assay [1] (setting [3]), under 10 nM; in assay [2] it was 10 to 100 nM. In assay [1], the “Fold selectivity for SST5 vs SST2” value is recorded as “++ (++=100 to 499)”.
Turning to `C[C@]1(N)CCN(c2c(-c3ccc(F)c(C#N)c3)cncc2-c2nc3ncccc3[nH]2)C1` [Compound 2-167, 5-{4-[(3S)-3-amino-3-methylpyrrolidin-1-yl]-5-{1H-imidazo[4,5-b]pyridin-2-yl}pyridin-3-yl}-2-fluorobenzonitrile], the EC50 in assay [1] is under 10 nM; in assay [1] (setting [3]), under 10 nM; in assay [2], over 1000 nM. The “Fold selectivity for SST5 vs SST2” value in assay [1] is on record as “+++ (+++=≥500)”.
Consider `COc1ccnc2nc(-c3cncc(-c4ccc(F)c(C#N)c4)c3N3CC[C@](C)(N)C3)[nH]c12` [Compound 2-172, 5-{4-[(3S)-3-amino-3-methylpyrrolidin-1-yl]-5-{7-methoxy-1H-imidazo[4,5-b]pyridin-2-yl}pyridin-3-yl}-2-fluorobenzonitrile], for which the EC50 in assay [1] was under 10 nM; in assay [1] (setting [3]), under 10 nM; in assay [2] it was over 1000 nM. In addition, in assay [1], the “Fold selectivity for SST5 vs SST2” value is “+++ (+++=≥500)”.
For the molecule `N#Cc1cccc(-c2cncc(-c3nc4cccc(F)c4[nH]3)c2N2CC[C@H](N)C2)c1` [Compound 2-7, 3-{4-[(3S)-3-aminopyrrolidin-1-yl]-5-(4-fluoro-1H-1,3-benzodiazol-2-yl)pyridin-3-yl}benzonitrile], the EC50 in assay [1] is under 10 nM; in assay [1] (setting [3]), under 10 nM; in assay [2], 100 to 1000 nM. In addition, the “Fold selectivity for SST5 vs SST2” value in assay [1] is on record as “+++ (+++=≥500)”.
On to `Cc1cccc2nc(-c3cncc(-c4ccc(F)c(C#N)c4)c3N3CC[C@H](N)C3)[nH]c12` [Compound 2-37, 5-{4-[(3S)-3-aminopyrrolidin-1-yl]-5-(4-methyl-1H-1,3-benzodiazol-2-yl)pyridin-3-yl}-2-fluorobenzonitrile], for which the figures for the EC50 in assay [1], in assay [1] (setting [3]) and in assay [2] were under 10 nM, under 10 nM and 100 to 1000 nM, respectively. The “Fold selectivity for SST5 vs SST2” value in assay [1] was “+++ (+++=≥500)”.
For `Cc1cccc2[nH]c(-c3cncc(-c4cc(F)c(F)c(C(N)=O)c4)c3N3CCC(C)(N)C3)nc12` (centres unmarked) [Compound 2-127, 5-[4-(3-Amino-3-methylpyrrolidin-1-yl)-5-(4-methyl-1H-1,3-benzodiazol-2-yl)pyridin-3-yl]-2,3-difluorobenzamide], the EC50 in assay [1] was under 10 nM; in assay [1] (setting [3]) it was under 10 nM; in assay [2], 100 to 1000 nM. Moreover, the “Fold selectivity for SST5 vs SST2” value in assay [1] is reported as “++ (++=100 to 499)”.
Turning to `Cc1ccc(F)c2[nH]c(-c3cncc(-c4ccnc(C#N)c4)c3N3CC[C@H](N)C3)nc12` [Compound 2-106, 4-[(3S)-3-aminopyrrolidin-1-yl]-5-(7-fluoro-4-methyl-1H-1,3-benzodiazol-2-yl)-[3,4′-bipyridine]-2′-carbonitrile], the EC50 in assay [1] is under 10 nM; in assay [1] (setting [3]) it was under 10 nM; in assay [2], 100 to 1000 nM. Besides, in assay [1], the “Fold selectivity for SST5 vs SST2” value is on record as “+++ (+++=≥500)”.
Take `Cc1ccnc2nc(-c3cncc(-c4cccc(C#N)c4)c3N3CCC(C)(N)C3)[nH]c12` (centres unmarked) [Compound 2-122, 3-[4-(3-amino-3-methylpyrrolidin-1-yl)-5-{7-methyl-1H-imidazo[4,5-b]pyridin-2-yl}pyridin-3-yl]benzonitrile]: the figures for the EC50 in assay [1], in assay [1] (setting [3]) and in assay [2] were under 10 nM, under 10 nM and 100 to 1000 nM, respectively. Besides, in assay [1], the “Fold selectivity for SST5 vs SST2” value is listed as “++ (++=100 to 499)”.
As to `Cc1cc(F)cc(-c2cncc(-c3nc4c(F)cc(F)cc4[nH]3)c2N2CC(CN)C2)c1` [Compound 1-7, 1-{1-[3-(4,6-difluoro-1H-1,3-benzodiazol-2-yl)-5-(3-fluoro-5-methylphenyl)pyridin-4-yl]azetidin-3-yl}methanamine], the EC50 in assay [1] was under 10 nM; in assay [1] (setting [3]), under 10 nM; in assay [2], over 1000 nM. For the same molecule, the “Fold selectivity for SST5 vs SST2” value in assay [1] is “+++ (+++=≥500)”.
Turning to `Cc1cccc2nc(-c3cncc(-c4cc(F)cc(C(N)=O)c4)c3N3CC[C@H](N)C3)[nH]c12` [Compound 2-65, 3-{4-[(3S)-3-aminopyrrolidin-1-yl]-5-(4-methyl-1H-1,3-benzodiazol-2-yl)pyridin-3-yl}-5-fluorobenzamide], the values for the EC50 in assay [1], in assay [1] (setting [3]) and in assay [2] were under 10 nM, under 10 nM and 100 to 1000 nM, respectively. Also, the “Fold selectivity for SST5 vs SST2” value in assay [1] was “++ (++=100 to 499)”.
As for `CC1(N)CCN(c2c(-c3ccc(F)c(C#N)c3)cncc2-c2nc3cccc(C#N)c3[nH]2)C1` (centres unmarked) [Compound 2-147, 2-[4-(3-amino-3-methylpyrrolidin-1-yl)-5-(3-cyano-4-fluorophenyl)pyridin-3-yl]-1H-1,3-benzodiazole-4-carbonitrile], the EC50 in assay [1] is under 10 nM; in assay [1] (setting [3]), under 10 nM; in assay [2], 100 to 1000 nM. Further, in assay [1], the “Fold selectivity for SST5 vs SST2” value is given as “+++ (+++=≥500)”.
Turning to `Cc1cccc2c1nc(-c1cncc(-c3ccc(F)c(C#N)c3)c1N1CC[C@H](N)C1)n2C` [Compound 2-132, 5-{4-[(3S)-3-aminopyrrolidin-1-yl]-5-(1,4-dimethyl-1H-1,3-benzodiazol-2-yl)pyridin-3-yl}-2-fluorobenzonitrile], the EC50 in assay [1] was under 10 nM; in assay [1] (setting [3]), under 10 nM; in assay [2], over 1000 nM. Further, the “Fold selectivity for SST5 vs SST2” value in assay [1] is recorded as “+++ (+++=≥500)”.
On to `N#Cc1cc(-c2cncc(-c3nc4cccc(F)c4[nH]3)c2N2CC[C@H](N)C2)ccc1Cl` [Compound 2-39, 5-{4-[(3S)-3-aminopyrrolidin-1-yl]-5-(4-fluoro-1H-1,3-benzodiazol-2-yl)pyridin-3-yl}-2-chlorobenzonitrile], for which the EC50 in assay [1] is under 10 nM; in assay [1] (setting [3]), under 10 nM; in assay [2], 100 to 1000 nM. In addition, in assay [1], the “Fold selectivity for SST5 vs SST2” value is reported as “++ (++=100 to 499)”.
Regarding `CC(N)C1(C)CN(c2c(-c3cccc(F)c3)cncc2-c2nc3cc(F)cc(F)c3[nH]2)C1` (centres unmarked) [Compound 1-68, 1-{1-[3-(4,6-difluoro-1H-1,3-benzodiazol-2-yl)-5-(3-fluorophenyl)pyridin-4-yl]-3-methylazetidin-3-yl}ethan-1-amine], the EC50 in assay [1] is under 10 nM; in assay [1] (setting [3]), under 10 nM; in assay [2] it was over 1000 nM. Also, the “Fold selectivity for SST5 vs SST2” value in assay [1] is recorded as “+++ (+++=≥500)”.
Regarding `CC(N)C1(C)CN(c2c(-c3cccc(C(F)(F)F)c3)cncc2-c2nc3cc(F)cc(F)c3[nH]2)C1` (centres unmarked) [Compound 1-69, 1-{1-[3-(4,6-difluoro-1H-1,3-benzodiazol-2-yl)-5-[3-(trifluoromethyl)phenyl]pyridin-4-yl]-3-methylazetidin-3-yl}ethan-1-amine], the figures for the EC50 in assay [1], in assay [1] (setting [3]) and in assay [2] were under 10 nM, under 10 nM and over 1000 nM, respectively. In addition, the “Fold selectivity for SST5 vs SST2” value in assay [1] is reported as “+++ (+++=≥500)”.
